What was measured:
AgORco = target: T1, AgORco (Anopheles gambiae, UniProt Q7QCC7); assay: single-channel recording, outside-out patches from AgORco-expressing HEK293 cells; assay type: cell-based
T1 construct: expressed in transfected cells
T1 sequence (Q7QCC7 1-478): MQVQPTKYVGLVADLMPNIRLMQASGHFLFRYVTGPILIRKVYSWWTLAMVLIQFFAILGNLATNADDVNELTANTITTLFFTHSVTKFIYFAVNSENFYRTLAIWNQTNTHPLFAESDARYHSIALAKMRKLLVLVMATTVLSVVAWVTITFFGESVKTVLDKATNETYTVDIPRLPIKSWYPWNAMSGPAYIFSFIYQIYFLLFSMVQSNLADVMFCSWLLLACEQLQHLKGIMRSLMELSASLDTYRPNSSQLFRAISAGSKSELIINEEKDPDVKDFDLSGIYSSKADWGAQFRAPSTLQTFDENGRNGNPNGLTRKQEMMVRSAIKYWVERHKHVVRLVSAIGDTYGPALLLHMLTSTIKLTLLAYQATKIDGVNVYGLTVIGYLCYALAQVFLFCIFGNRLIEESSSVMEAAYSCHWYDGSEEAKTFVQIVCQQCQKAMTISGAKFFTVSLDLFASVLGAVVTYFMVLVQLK
Method: Currents from OR-expressing HEK293 cells were amplified with an Axopatch 200b Amplifier (Axon Instruments) and digitized through a Digidata 1322A (Axon Instruments). Electrophysiological data was recorded and analyzed using pCLAMP 10 (Axon Instruments). Electrodes were fabricated from quartz tubing (Sutter Instruments) and pulled to 4-6 MΩ for whole cell recording. Electrodes were filled with internal solution (120 mM KCl, 30 mM D-glucose, 10 mM HEPES, 2 mM MgCl2, 1.1 mM EGTA, and 0.1 CaCl2 (pH 7.35, 280 mOsm). External (bath) solution contained 130 mM NaCl, 34 mM D-glucose, 10 mM HEPES, 1.5 mM CaCl2, 1.3 mM KH2PO4, and 0.5 MgSO4 (pH 7.35, 300 mOsm). Compounds were diluted in external solution and locally perfused to the recording cell using Perfusion Pencil (Automate Scientific) and controlled by a ValveLink 8.2 controller (Automate Scientific). Whole cell recordings were sampled at 10 kHz and filtered at 5 kHz. Outside-out patches were obtained using 10-15MΩ electrodes pulled from standard glass capillaries (World Precision Instruments) and fire-polished with an MF-830 micro forge (Narishige). Single channel recordings were sampled at 20 kHz. Recordings were reduced to 1 kHz and low-pass filtered at 500 Hz for display and analysis using QuB (SUNY at Buffalo).
In the next set of studies, outside-out membrane patches were excised from AgORco-expressing cells to examine single-channel currents evoked by VUAA1 (FIG. 5A). Here, spontaneous channel opening was observed before VUAA1 stimulation, but with very low probability (Po=0.02) (FIG. 5B). During a 5 s application of VUAA1 channel opening probability increased to Po=0.38 (FIG. 5C). Subsequent to agonist washout, channel opening probability decreased to 0.00 (FIG. 5D). The average unitary current of AgORco was 1.3±0.3 pA (mean±st. dev.) (FIG. 5C, inset) which is consistent with earlier single-channel studies of insect ORs (Sato et al., 2008).

[1] = test system: CpA neuron (CO2 sensitive, does not express AgORco); assay: single sensillum recordings, capitate peg sensilla, CpA neuron; assay type: in vivo, Anopheles gambiae; conditions: CO2 pulse at completion of assay, adult females
Method: Single sensillum recordings were performed on 4-7 day old, non-bloodfed Anopheles gambiae females maintained on 10% sucrose and a 12/12 light dark cycle. Legs, wings and antennae were removed from cold-anesthetized females that were then restrained on double-stick tape with thread. A glass reference electrode filled with Sensillar lymph ringers (SLR)(Xu, 2005) was placed in the eye and the recording electrode filled with DMSO or VUAA1 diluted in SLR was used to puncture sensilla at their base. Responses were recorded and digitized using a Syntech IDAC-4 and analyzed with AutoSpike software (Syntech). New glass recording pipettes were used for every recording. Data was sampled at 12 kHz.
The inventors next performed single unit, extracellular electrophysiological recordings on adult female An. gambiae to determine whether VUAA1 could activate AgORco-expressing odorant receptor neurons (ORNs) in vivo. ORNs, which express AgORco and a conventional OR are enclosed within the hair-like sensilla present on olfactory tissues. […] CpA is clearly distinguished from CpB/C by its large action potential amplitude. The action potential amplitudes of CpB and CpC are much smaller and in some preparations indistinguishable from each other; as a result, the spike activity of CpB and CpC neurons were binned for data analysis. […]

An. gambiae larvae = assay: larval behavioral (movement) bioassay, Ethovision; assay type: in vivo, Anopheles gambiae
Method: FIG. 9. VUAA1's larval activity threshold relative to DEET is 5 orders of magnitude lower and AgORco dependent. Larval activity in An. gambiae over 5 minutes monitored in 6-well culture plates using Ethovision (Noldus) software.
In order to address whether VUAA1 as a non-volatile could also evoke behavioral responses from An. gambiae, the inventors tested behavioral responses to VUAA1 on individual larval stage mosquitoes by adaptation of an olfactory based bioassay recently developed at Vanderbilt (described in Liu et al., 2010). These methods are non-invasive, and easily executed using a fully automated setup with an Ethovision® camera/software system (Noldus Information Technology to quantify the overall movement of mosquito larvae in response to uniform concentrations of chemicals. In these assays, increased overall movement can be interpreted as an aversive response (akin to agitation) that are consistent with those evoked by commercially available insect repellents such as DEET.

CCc1ccc(NC(=O)CSc2nnc(-c3cccnc3)n2CC)cc1 [VUAA1]
channel opening probability (Po) during application (AgORco; 5 s application of −4.0 log M, outside-out patch held at −60 mV, Po=0.02 before stimulation): 0.38 | average unitary current of AgORco (AgORco; during VUAA1 application, mean±st. dev.): 1.3±0.3 pA | channel opening probability after agonist washout (AgORco; outside-out patch, after washout): 0.00 | CpA activity [1]: unchanged | larval behavioral responses (overall movement) (An. gambiae larvae; An. gambiae larvae, 5 minutes): robust responses | larval response after AgORco silencing (An. gambiae larvae; larvae treated with AgOrco siRNAs): no longer respond | larval response after mock or non-specific siRNA control injection (An. gambiae larvae; mock or non-specific siRNA control injection): retain their high sensitivity | threshold of larval responses lower than DEET (An. gambiae larvae; relative to DEET): 5 orders of magnitude
